In ChEMBL document CHEMBL1938312, “Design and combinatorial synthesis of a novel kinase-focused library using click chemistry-based fragment assembly” (Bioorg Med Chem Lett, 2012):

Experiments:
[1] = target: T1, Receptor-type tyrosine-protein kinase FLT3 (Homo sapiens, UniProt P36888); test: Inhibition of FLT3 by colorimetric analysis
T1 sequence (P36888 whole entry): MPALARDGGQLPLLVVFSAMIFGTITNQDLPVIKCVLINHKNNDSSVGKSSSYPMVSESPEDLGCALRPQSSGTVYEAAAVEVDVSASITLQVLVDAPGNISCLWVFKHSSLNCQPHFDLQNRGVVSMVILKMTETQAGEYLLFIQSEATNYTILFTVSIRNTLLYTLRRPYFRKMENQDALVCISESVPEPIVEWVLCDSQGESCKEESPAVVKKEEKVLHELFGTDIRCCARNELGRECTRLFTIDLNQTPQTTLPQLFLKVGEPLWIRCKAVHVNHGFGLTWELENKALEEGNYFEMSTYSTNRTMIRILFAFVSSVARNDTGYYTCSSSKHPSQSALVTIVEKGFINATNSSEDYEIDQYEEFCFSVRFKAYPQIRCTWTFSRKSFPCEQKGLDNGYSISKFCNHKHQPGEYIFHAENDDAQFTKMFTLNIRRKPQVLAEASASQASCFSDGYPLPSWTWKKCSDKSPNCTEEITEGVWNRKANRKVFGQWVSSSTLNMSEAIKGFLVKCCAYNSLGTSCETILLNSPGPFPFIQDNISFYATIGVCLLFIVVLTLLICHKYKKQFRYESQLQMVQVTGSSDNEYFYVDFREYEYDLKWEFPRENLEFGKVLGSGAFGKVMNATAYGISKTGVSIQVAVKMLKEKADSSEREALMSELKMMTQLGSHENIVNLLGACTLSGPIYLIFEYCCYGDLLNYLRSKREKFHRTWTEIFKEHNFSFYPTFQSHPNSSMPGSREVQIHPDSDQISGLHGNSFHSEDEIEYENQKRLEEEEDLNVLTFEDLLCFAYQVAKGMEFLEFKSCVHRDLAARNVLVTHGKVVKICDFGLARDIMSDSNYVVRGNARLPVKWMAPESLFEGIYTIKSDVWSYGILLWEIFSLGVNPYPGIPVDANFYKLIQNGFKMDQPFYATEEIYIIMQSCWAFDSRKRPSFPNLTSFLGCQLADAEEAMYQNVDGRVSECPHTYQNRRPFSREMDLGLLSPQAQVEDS

[2] = target: Glycogen synthase kinase-3 beta (Homo sapiens, UniProt P49841); test: Inhibition of GSK3-beta by colorimetric analysis
Chain of Glycogen synthase kinase-3 beta (P49841 whole entry): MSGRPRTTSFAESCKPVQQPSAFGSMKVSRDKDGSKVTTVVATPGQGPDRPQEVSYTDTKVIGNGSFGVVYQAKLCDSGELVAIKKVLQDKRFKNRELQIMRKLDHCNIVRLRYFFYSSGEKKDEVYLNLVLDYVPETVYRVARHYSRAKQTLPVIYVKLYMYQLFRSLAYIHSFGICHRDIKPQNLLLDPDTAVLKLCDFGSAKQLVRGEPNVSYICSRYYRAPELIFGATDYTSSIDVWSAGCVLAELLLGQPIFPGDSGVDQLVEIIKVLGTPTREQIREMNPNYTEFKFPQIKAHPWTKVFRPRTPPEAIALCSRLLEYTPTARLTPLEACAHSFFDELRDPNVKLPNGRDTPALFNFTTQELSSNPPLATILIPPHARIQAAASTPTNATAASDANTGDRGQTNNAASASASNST

SMILES	IC50 [1] [µM]	IC50 [2] [nM]
Cc1ccc(-n2cc(-c3ccncc3)nn2)cc1	6.6	
Fc1ccc(-n2cc(-c3ccc4nccnc4c3)nn2)cc1	12.4	
Clc1ccc(-n2cc(-c3ccccn3)nn2)cc1	6.3	
c1cnc2cc(-c3cn(C4C5CC6CC(C5)CC4C6)nn3)ccc2n1 (stereo unspecified)	9.7	
Cc1ccccc1-n1cc(-c2ccccn2)nn1	9.3	490
Fc1ccc(-n2cc(-c3ccccn3)nn2)cc1	6.7	
c1ccc(Cn2cc(-c3ccc4nccnc4c3)nn2)cc1	6.3	9500
c1cc(-c2cnnn2C2C3CC4CC(C3)CC2C4)ccn1 (stereo unspecified)	4.8	2600
Cc1ccc(-n2cc(-c3ccccn3)nn2)cc1	1.1	> 30000
c1ccc(-c2cnnn2C2C3CC4CC(C3)CC2C4)nc1 (stereo unspecified)	10.2	
Fc1ccc(-n2nncc2-c2ccncc2)cc1	1.4	
c1cnc2cc(-c3cnnn3C3C4CC5CC(C4)CC3C5)ccc2n1 (stereo unspecified)	3.1	2800
c1cnc2cc(-c3cn(CCN4CCOCC4)nn3)ccc2n1	10.9	
Cc1ccccc1-n1nncc1-c1ccncc1	6.2	6300
Cc1ccc(-n2nncc2-c2ccncc2)cc1	2.3	
